Measured values published in US12390447B2, “Sirtuin 6 protein deacylase (SIRT6) activators” (Wisconsin Alumni Research Foundation, priority 2019, dated 2025).

What was measured:
Format in all cases: biochemical
SIRT6 K81A = SIRT6 K81A (Homo sapiens, UniProt Q8N6T7, K81A); assay: Steady-state deacetylation rate of SIRT6 K81A with or without CL5D; settings: SIRT6 K81A 1 μM, H3K9ac 40 μM, CL5D 50 μM, 25 minutes
Method: All sirtuin deacylation assays were carried out at 37° C. in 20 mM potassium phosphate pH 7.5 with 0.5 mM NAD^+, 10% DMSO, and 20 μM H3K9ac or H3K9myr peptides, unless otherwise noted in legend, and quenched by the addition of 2% TFA final. Steady-state reactions were constrained to less than 20% substrate turnover to prevent product inhibition. A variety of times were required to monitor SIRT6 deacetylation (2-60 minutes) under this restraint given the ability to strongly activate catalysis. In these cases, specific activities were determined and either reported as is or as fold-activation of specific activity. Deacylation reactions were analyzed by reversed phase high-performance liquid chromatography on a Kinetex C18 column (100 Å, 100×4.6 mm, 2.6 μm, Phenomenex) by monitoring the formation of the deacylated product at 214 nm. Deacetylation reactions were analyzed using a gradient of 33-100% B (30% acetonitrile with 0.05% TFA) in 8 min at 1.6 mL min^−1. Demyristoylation reactions were analyzed using a gradient of 3 to 100% B (acetonitrile with 0.05% TFA) in 10 min at 1.6 mL min^−1. The product and substrate peaks were quantified and ratio of these allowed for quantification of product formation. Three independent experiments were performed for each condition with averages being plotted and error bars representing the standard deviation of these replicates. […]

SIRT1 = biological target: T1, SIRT1 (Homo sapiens, UniProt Q96EB6); assay: SIRT1 deacetylase activity against H3K9ac peptide; settings: 400 μM compound
T1 sequence (Q96EB6 1-747): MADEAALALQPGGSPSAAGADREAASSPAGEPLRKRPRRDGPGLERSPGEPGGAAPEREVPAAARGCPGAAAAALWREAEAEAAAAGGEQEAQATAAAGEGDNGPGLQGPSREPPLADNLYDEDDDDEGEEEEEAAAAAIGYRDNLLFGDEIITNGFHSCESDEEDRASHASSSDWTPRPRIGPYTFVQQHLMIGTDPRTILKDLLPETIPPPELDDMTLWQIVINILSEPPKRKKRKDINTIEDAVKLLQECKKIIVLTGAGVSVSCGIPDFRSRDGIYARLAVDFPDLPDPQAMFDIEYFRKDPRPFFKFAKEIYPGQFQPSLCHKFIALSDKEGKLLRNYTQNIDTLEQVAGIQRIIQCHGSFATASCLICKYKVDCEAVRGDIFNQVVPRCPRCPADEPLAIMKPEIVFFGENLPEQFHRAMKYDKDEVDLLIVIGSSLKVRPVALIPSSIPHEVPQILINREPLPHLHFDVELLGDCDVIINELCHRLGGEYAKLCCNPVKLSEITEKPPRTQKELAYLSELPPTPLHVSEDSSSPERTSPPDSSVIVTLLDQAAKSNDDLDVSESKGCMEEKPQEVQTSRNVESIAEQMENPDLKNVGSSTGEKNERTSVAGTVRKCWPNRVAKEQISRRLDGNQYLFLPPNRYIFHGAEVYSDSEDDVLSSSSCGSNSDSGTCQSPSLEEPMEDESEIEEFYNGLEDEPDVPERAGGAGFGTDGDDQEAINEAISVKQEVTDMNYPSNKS
Method: FIGS. 1A-F illustrate the identification of novel SIRT6 activators. (1A) Compound libraries BML-2803, BML-2800, and an additional set of 178 molecules were screened at 100 μM for their ability to stimulate SIRT6 (1 μM) deacetylation of H3K9ac peptide (20 μM) in the presence of 0.5 mM NAD^+. SIRT6 activity was measured by HPLC quantification of H3K9ac and deacetylated product (inset) and fold activations relative to DMSO control were determined and compiled. (1B) Fold-activation of SIRT6 (1 μM) determined in the presence of either 0-400 μM CL4, 0-150 μM TTNPB, 0-100 μM Lysophosphatidic acid (LPA), or 0-200 μM linoleoylglycine (LGly). Maximum fold-activation and EC50 determined by sigmoidal curve fit. […] Constants Km, H3K9ac and kcat were determined by fitting data to Michaelis-Menten equation. (1D) Fold-activations of SIRT1 (0.1 μM), SIRT2 (0.2 μM), SIRT3 (1 μM), SIRT5 (2 μM), and SIRT6 (1 μM) determined in the presence of CL4 (100 μM), TTNPB (50 μM), and LPA (50 μM) relative to DMSO control against 20 μM H3K9ac peptide and 0.5 mM NAD^+. […]
All sirtuin deacylation assays were carried out at 37° C. in 20 mM potassium phosphate pH 7.5 with 0.5 mM NAD^+, 10% DMSO, and 20 μM H3K9ac or H3K9myr peptides, unless otherwise noted in legend, and quenched by the addition of 2% TFA final. […] The product and substrate peaks were quantified and ratio of these allowed for quantification of product formation. […]

SIRT6 = SIRT6 (Homo sapiens, UniProt Q8N6T7); assay: Burst kinetic analysis of SIRT6 deacetylation; settings: SIRT6 10 μM, 400 μM H3K9ac peptide, 500 μM NAD+
Chain of SIRT6 (Q8N6T7 whole entry): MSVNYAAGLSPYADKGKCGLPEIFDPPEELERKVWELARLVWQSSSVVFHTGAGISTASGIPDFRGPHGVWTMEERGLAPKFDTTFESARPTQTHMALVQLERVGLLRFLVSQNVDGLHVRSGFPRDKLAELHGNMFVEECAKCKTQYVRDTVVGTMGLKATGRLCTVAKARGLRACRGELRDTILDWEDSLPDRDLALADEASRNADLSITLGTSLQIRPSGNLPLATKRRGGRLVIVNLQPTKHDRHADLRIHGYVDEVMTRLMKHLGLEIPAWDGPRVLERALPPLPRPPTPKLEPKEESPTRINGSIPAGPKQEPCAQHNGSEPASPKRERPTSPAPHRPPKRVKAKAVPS
Method: SIRT6 (10 μM) was mixed with either H3K9ac peptide (400 μM) or NAD^+ (500 μM) in 20 mM potassium phosphate pH 7.5 and preheated to 37° C. for 3 minutes. Reactions were initiated either through the addition of NAD^+ (500 μM final) or H3K9ac peptide (400 μM final) and quenched after 10-1800 seconds by the addition of 3% TFA final. For each experiment, a control reaction in which H3K9ac peptide was excluded was collected at each timepoint and subtracted from corresponding experimental reactions to control for NAD^+ degradation. Nicotinamide and deacetylated peptide product were quantified by reverse-phase HPLC as described in the rapid quench flow kinetics methods section.
To further dissect the catalytic step(s) in kcat/Km,H3K9ac that are enhanced in the presence of activator, reaction conditions were set up to identify the existence of product ‘bursts’ during the first catalytic turnover. High concentrations of SIRT6 (10 μM) in the presence of 400 μM H3K9ac peptide were rapidly mixed with 500 μM NAD^+, and after an acid quench at different times, the products nicotinamide and deacetylated peptide were resolved and quantified by HPLC. […] The order of substrate mixing had no effect on the product curves.

Chain of SIRT6 K81A (Q8N6T7 whole entry K81A): as the sequence (Q8N6T7 whole entry) above, with K81A counted along it

RateCL5D (SIRT6 K81A): 0.125 ± 0.003 µM/min | SIRT1 deacetylase activity at high activator concentration (SIRT1): inhibited | rate enhancement in the presence of CL5D (SIRT6): 1.8 fold
SMILES: O=C(O)c1ccc2c(c1)C(=O)N(c1ccc(N(C(=O)c3c(Cl)cc(Cl)cc3Cl)C(=O)c3c(Cl)cc(Cl)cc3Cl)c(Cl)c1)C2=O [CL-5D, 2-(3-chloro-4-(2,4,6-trichloro-N-(2,4,6-trichlorobenzoyl)benzamido)phenyl)-1,3-dioxoisoindoline-5-carboxylic acid]
